Results from publication PMC5522071, “Preclinical development of G1T38: A novel, potent and selective inhibitor of cyclin dependent kinases 4/6 for use as an oral antineoplastic in patients with CDK4/6 sensitive tumors” (Oncotarget, 2017).
pIC50, pKd: −log10 of the molar value.

Key:
[1] = test system: ER+ MCF7 xenograft; experiment: MCF-7 breast cancer xenograft model; format: in vivo, mice; conditions: for tumor growth inhibition (TGI): after 27 days of treatment
Protocol: Tumors were measured every 3 to 4 days during treatment for up to 20 days post-treatment. […] South Texas Accelerated Research Therapeutics (START; San Antonio, Texas) evaluated the antitumor activity of G1T38 in a START Cell-Based Xenograft (START-CBX) tumor model, MCF-7, representing human breast cancer. Data collected from this efficacy study included animal weights, observations, and tumor dimensions. This information was used to determine agent tolerability based on weight change and gross physiologic changes, and anticancer activity based on tumor growth inhibition or regression. Study endpoint was Day 60. MCF-7 cells were harvested from culture and injected into immune-deficient mice and the study initiated at a mean tumor volume of approximately 150-250 mm^3. […] Tumor growth inhibition (%TGI) was calculated using the following equation: %TGI=(1-(((TVtmtfinal-TVtmtinitial))/((AVERAGE(TVctlfinal))-(AVERAGE(TVctlinital)))))*100.

[2] = molecular target: T1, CDK6/Cyclin D3 (Homo sapiens, UniProt Q00534); format: biochemical; conditions: 12-point dose response, singlicate, at Km for ATP
T1 construct: purchased Nanosyn, Inc. (contract assay)

[3] = molecular target: CDK2/Cyclin A (Homo sapiens, UniProt P24941); conditions: read-out: IC50 CDK2/Cyclin A, Mean; 12-point dose response, singlicate, at Km for ATP
Protocol: The assays were completed using microfluidic kinase detection technology (Caliper Assay Platform). The compounds were tested in 12-point dose response format in singlicate at the Km for ATP. Phosphoacceptor substrate peptide concentration used was 1 μM and Staurosporine was used as the reference compound for all assays.

[4] = molecular target: T2, CDK5/p35 (Homo sapiens, UniProt Q00535); format: biochemical; conditions: 12-point dose response, singlicate, at Km for ATP
T2 construct: purchased Nanosyn, Inc. (contract assay)

[5] = test system: neutrophils; experiment: GLP 28-day toxicology study, CBC; format: in vivo, beagle dogs; conditions: 1, 2.5 and 5 mg/kg/day
Protocol: However, from 14 to 25 days, cells reached a steady state level, which was readily reversible once dosing was stopped (Figure 5E).
Beagle dogs (5/ sex) were dosed once daily for 28 consecutive days via oral gavage. The dose levels were 1, 2.5 and 5 mg/kg/day and administered at a dose volume of 5 mL/kg. Hematology samples (1ml/ time point) were collected in K3EDTA tubes twice pre-test and then on days 7, 14, 21, and 25 during the dosing period and on days 35, and 42 during the recovery period. Complete blood counts were performed and results reported. All studies were conducted utilizing methods and protocols in accordance with IACUC approval at MPI Research (Mattawan, MI).

[6] = molecular target: T3, CDK7/Cyclin H/ Mat1 (Homo sapiens, UniProt P50613); format: biochemical; conditions: 12-point dose response, singlicate, at Km for ATP
T3 construct: purchased Nanosyn, Inc. (contract assay)

[7] = test system: RB phosphorylation (Ser807/811) in WM2664 cells; experiment: Western blot for pRb and total Rb; format: cell-based
Protocol: Once phosphorylated, RB dissociates from cell cycle-promoting transcription factors, allowing them to drive the G1 to S-phase transition. Therefore, CDK4/6 inhibition of RB phosphorylation will arrest cells in G1. To assess the effect of G1T38 on RB phosphorylation, WM2664 cells were treated with varying doses of G1T38 for 24 hours. After treatment, cells were harvested and phosphorylation of RB at the Ser807/811 sites was evaluated via immunoblotting. Phosphorylation of RB at Ser807/811 sites first requires binding of CDK4/6 [3] in order to progress into S-phase. […] To determine the kinetics of CDK4/6 inhibition on RB phosphorylation, WM2664 cells were treated with 300 nM G1T38 for 1, 4, 8, 16, and 24 hours.
WM2664 cells were either treated for dose response (3, 10, 30, 100, 300 or 1000 nM) for 24 hours or a time course (1, 4, 8, 16 or 24 hours) with 300 nM G1T38. Whole cell extracts were prepared using 1x radioimmunoprecipitation assay buffer (RIPA) (ThermoFisher) containing 1x HALT® protease and phosphatase inhibitors (ThermoFisher). Total protein concentration was determined by using the bicinchoninic acid (BCA) Protein Assay Kit (PIERCE/ ThermoFisher), according to manufacturer's instructions. 20 micrograms of protein were heat denatured for 10 minutes at 70°C and resolved by Novex® NuPAGE® SDS-PAGE gel system (ThermoFisher) at 200 volts, constant current and transferred to 0.45 μm nitrocellulose membrane (Life Technologies) in 1 x Transfer buffer (Life Technologies) plus 20% methanol (Sigma-Aldrich (St. Louis, MO) by electroblotting at 35 volts, constant current. Membranes were blocked in LiCor Membrane Blocking Buffer (Lincoln, NE) and incubated overnight with either rabbit anti-pRb (Ser807/811, CST-9308) antibody (Cell Signaling Technology (Danvers, MA) at a 1:500 dilution or mouse anti-Rb (CST-9309) at a 1:2,000 dilution and mouse α-tubulin (CST-3873) antibody (Cell Signaling Technology) at a 1:1,000 dilution, as a loading control. […] Blots were incubated for one hour, washed and imaged using LiCor ImageStudio software (Version 4.0.21).

[8] = molecular target: FLT3 (ITD, D835V) (Homo sapiens, UniProt P36888, D835V/ITD); experiment: KdELECT Kd determination (DiscoveRx); format: binding
Protocol: G1T38 was profiled at DiscoveRx (Fremont, CA) using their KINOMEscan and scanMAX screening technology. Briefly, G1T38 was tested at 100 and 1000 times the biochemical IC50 as described in Figure 1B. All target kinases that responded to greater than 90% inhibition were tested as individuals for Kd determination as described in Supplementary Table 1.
Supplementary Table 1: G1T38 Kinase Interactions
KdELECT® (DiscoveRx) was used as a follow-up to quantify binding affinity of G1T38-kinase interactions identified in the primary screen. Inhibitor binding constants (Kd values) were calculated from duplicate 11-point dose-response curves for targets that elicited >90% inhibition at 100 nM.

T3 sequence (P50613 whole entry): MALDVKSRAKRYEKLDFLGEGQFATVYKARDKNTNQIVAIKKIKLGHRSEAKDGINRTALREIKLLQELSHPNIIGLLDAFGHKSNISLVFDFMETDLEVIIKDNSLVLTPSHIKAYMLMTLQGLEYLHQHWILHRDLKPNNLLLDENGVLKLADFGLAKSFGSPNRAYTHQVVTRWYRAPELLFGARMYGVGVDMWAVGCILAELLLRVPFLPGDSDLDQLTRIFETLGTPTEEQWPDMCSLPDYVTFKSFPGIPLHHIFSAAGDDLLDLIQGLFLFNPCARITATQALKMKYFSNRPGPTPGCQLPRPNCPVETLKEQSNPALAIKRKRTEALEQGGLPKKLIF
T3 sequence (P51946 whole entry partner): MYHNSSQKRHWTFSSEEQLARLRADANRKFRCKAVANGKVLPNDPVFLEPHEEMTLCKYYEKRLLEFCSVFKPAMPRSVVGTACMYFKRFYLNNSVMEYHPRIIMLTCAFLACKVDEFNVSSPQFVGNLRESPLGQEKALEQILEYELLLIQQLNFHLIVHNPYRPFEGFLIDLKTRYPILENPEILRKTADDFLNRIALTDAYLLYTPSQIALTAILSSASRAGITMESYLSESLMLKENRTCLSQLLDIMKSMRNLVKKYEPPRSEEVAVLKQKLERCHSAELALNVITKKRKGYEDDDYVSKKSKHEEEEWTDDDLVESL
T3 sequence (P51948 whole entry partner): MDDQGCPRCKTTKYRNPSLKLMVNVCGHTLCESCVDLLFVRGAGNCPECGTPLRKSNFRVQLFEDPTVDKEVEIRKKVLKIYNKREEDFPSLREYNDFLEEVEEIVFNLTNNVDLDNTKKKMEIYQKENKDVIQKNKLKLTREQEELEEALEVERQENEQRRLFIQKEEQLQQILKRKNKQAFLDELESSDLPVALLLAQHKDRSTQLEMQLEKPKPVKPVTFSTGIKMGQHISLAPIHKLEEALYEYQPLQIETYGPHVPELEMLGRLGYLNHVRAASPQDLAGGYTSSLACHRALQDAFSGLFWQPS
T1 sequence (Q00534 whole entry): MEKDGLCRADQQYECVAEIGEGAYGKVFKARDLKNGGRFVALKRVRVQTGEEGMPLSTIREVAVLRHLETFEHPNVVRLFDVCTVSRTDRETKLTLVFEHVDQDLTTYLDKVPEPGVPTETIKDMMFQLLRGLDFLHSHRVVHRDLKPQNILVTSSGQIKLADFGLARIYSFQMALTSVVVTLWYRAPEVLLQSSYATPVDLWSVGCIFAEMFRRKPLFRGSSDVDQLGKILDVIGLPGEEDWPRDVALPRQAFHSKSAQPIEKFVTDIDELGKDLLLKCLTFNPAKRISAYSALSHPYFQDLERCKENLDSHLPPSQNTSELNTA
T1 sequence (P30281 whole entry partner): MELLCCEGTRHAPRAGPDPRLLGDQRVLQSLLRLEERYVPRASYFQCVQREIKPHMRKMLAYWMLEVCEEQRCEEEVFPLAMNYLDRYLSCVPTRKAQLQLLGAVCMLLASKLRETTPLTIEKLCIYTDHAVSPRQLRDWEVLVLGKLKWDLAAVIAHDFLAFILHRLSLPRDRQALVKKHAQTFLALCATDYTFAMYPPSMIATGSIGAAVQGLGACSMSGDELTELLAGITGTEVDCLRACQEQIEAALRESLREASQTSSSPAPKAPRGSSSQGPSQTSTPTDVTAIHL
T2 sequence (Q00535 whole entry): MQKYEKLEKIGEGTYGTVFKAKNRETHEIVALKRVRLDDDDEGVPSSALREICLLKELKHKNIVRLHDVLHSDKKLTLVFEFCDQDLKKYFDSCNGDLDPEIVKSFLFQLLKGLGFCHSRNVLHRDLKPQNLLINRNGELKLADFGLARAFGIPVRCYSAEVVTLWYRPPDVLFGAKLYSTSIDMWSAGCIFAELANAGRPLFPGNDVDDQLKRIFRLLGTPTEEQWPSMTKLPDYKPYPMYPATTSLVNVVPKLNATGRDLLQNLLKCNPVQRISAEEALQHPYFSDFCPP
T2 sequence (Q15078 2-307 partner limits assumed): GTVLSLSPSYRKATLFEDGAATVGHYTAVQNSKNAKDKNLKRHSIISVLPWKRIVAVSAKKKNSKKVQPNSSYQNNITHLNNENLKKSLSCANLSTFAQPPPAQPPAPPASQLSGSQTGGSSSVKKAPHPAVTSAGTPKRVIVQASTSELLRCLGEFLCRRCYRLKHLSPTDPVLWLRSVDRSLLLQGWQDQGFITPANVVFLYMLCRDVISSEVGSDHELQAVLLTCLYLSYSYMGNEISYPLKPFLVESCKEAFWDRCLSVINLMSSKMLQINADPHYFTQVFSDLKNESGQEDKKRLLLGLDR

CC(C)N1CCN(c2ccc(Nc3ncc4cc5n(c4n3)C3(CCCCC3)CNC5=O)nc2)CC1.Cl.Cl [G1T38, 2′-((5-(4-isopropylpiperazin-1-yl)pyridin-2-yl)amino)-7′, 8′dihydro-6′Hspiro[cyclohexane1,9′ pyrazino[1′,2′:1,5]pyrrolo[2,3-d]pyrimidin]-6′-one di-hydrochloride]
tumor growth inhibition (TGI) ([1]; 10 mg/kg once daily oral): approximately 12%
tumor response, combination with fulvestrant ([1]; 50 mg/kg G1T38 + 5 mg fulvestrant, 28 days): near complete, sustained tumor regression
tumor response, combination with tamoxifen ([1]; 50 mg/kg G1T38 + 20 mg/kg tamoxifen, 28 days): near complete, sustained tumor regression
efficacy compared with palbociclib ([1]; 50 mg/kg daily oral, 28 days): significantly more efficacious than palbociclib
tumor growth inhibition (TGI) ([1]; 50 mg/kg once daily oral): ~74%
time to tumor regression ([1]; 100 mg/kg daily oral): ≤ 10 days
tumor growth inhibition (TGI) ([1]; 100 mg/kg once daily oral): ~90%
efficacy, combination with GDC0941 ([1]; G1T38 25 or 50 mg/kg + GDC0941 100 mg/kg): greater efficacy than any of the treatments alone
tumor response, combination with GW5638 ([1]; G1T38 25 or 50 mg/kg + GW5638 25 mg/kg): sustained tumor regression
TGI as single agents (GDC0941 study) ([1]; G1T38 25 or 50 mg/kg alone, GDC0941 100 mg/kg alone): modest TGI
TGI as single agents (GW5638 study) ([1]; G1T38 25 or 50 mg/kg alone, GW5638 25 mg/kg alone): modest TGI
pIC50 [2]: 8.70
pIC50 [3]: 5.82
pIC50 [4]: 6.08
neutrophil course during 28 days daily oral treatment [5]: neutrophils decreased rapidly in a dose dependent manner during the first 14 days
pIC50 [6]: 5.62
time to near complete inhibition of RB phosphorylation post-treatment ([7]; 300 nM): ≤ 16 h
time to reduced RB phosphorylation post-treatment ([7]; 300 nM): ≤ 1 h
inhibition of RB phosphorylation (figure legend) ([7]; 300 nM exposure, 24 hours): complete inhibition
inhibition of RB phosphorylation compared to vehicle controls ([7]; 30-1000 nM, 24 hours): complete inhibition
pKd [8]: 7.66
